Patent publication US20240166669A1, “QUINAZOLINE AMINE DERIVATIVES AS KRAS INHIBITORS” (Nikang Therapeutics, Inc., priority 2021, published 2024)

Target: T1, K-Ras G12D (Homo sapiens, UniProt P01116, G12D)
T1 construct: AGS (Cobioer, CBP60476) cell lines which harbor KRAS G12D mutation; host or cells: AGS
Test: p-ERK Cellular 1-Plate Assay (Biological Example 3)
Format: cell-based
Conditions: AGS cells (KRAS G12D), 3 h treatment, AlphaLISA p-ERK1/2, 1-plate; Biological Example 3 (values marked *); read-out: AGS PERK EC50
Method: The ability of the compound of Formula (IIA′), (II′), or (II) or a pharmaceutically acceptable salt thereof (test compound) to inhibit K-Ras G12D activity was tested using AGS (Cobioer, CBP60476) cell lines which harbor KRAS G12D mutation as described below.
AGS (Cobioer, CBP60476) were seeded in 384-well plates and cultured overnight (5,000 cells per well, 40 μl total volume). The following morning, cells were treated with test compound, with starting concentration at 10 μM and 3-fold dilution down to 0.5 nM for 3 h at […]. DMSO treatment served as control. pERK was then measured using AlphaLISA SureFire Ultra p-ERK/2 (Thr202/Tyr204) Assay Kit (Perkin Elmer, cat #ALSU-PERK) following the manufacturer's instruction as follows.
Briefly, the culture medium was removed and 10 μl 1× lysis buffer was added to each well, followed by 10 minutes incubation on a plate shaker at room temperature. Acceptor mixture was prepared according to manufacturer's instruction. 5 μl acceptor mixture was added to the cell lysate and the plate was wrapped with foil, spun at 500 rpm for 10s and incubated at RT for 60 min. Donor mixture was prepared under subdued light. 5 μl donor mixture was added to the cell lysate and the plate was spun at 500 rpm for 10s and incubated at RT for another 60 min. in the dark.

T1 sequence (P01116 1-188 isoform P01116-2 G12D): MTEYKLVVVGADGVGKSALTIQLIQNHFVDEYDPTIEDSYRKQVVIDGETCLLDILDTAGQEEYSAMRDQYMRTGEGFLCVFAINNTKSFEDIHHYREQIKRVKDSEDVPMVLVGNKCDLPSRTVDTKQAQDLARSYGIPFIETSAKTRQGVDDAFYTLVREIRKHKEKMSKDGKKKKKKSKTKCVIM

EC50 [nM]	Structure (SMILES)
> 100	C#Cc1c(F)ccc2cc(O)cc(-c3ncc4c(N5C[C@H]6CC[C@@H](C5)N6)nc(OCC56CCCCCN5CC(=C)C6)nc4c3F)c12 (stereo partly drawn) [Example 44, 4-(4-((1R,5S)-3,8-diazabicyclo[3.2.1]octan-3-yl)-8-fluoro-2-((2-methylenehexahydro-1H-pyrrolo[1,2-a]azepin-9a(5H)-yl)methoxy)pyrido[4,3-d]pyrimidin-7-yl)-5-ethynyl-6-fluoronaphthalen-2-ol]
1.4	C#Cc1c(F)ccc2cc(O)cc(-c3ncc4c(N5C[C@H]6CC[C@H](N6)C5C)nc(OCC56CCCN5CC(=C)C6)nc4c3F)c12 (stereo partly drawn) [Example 54, 5-ethynyl-6-fluoro-4-(8-fluoro-4-((1S,5R)-2-methyl-3,8-diazabicyclo[3.2.1]octan-3-yl)-2-((2-methylene-tetrahydro-1H-pyrrolizin-7a(5H)-yl)methoxy)-pyrido[4,3-d]pyrimidin-7-yl)naphthalen-2-ol]
> 100	C#Cc1c(F)ccc2cccc(-c3ncc4c(N5C[C@H]6CC[C@@H](C5)N6)nc(OCC56CCCCCN5CC(=C)C6)nc4c3F)c12 (stereo partly drawn) [Example 52, 4-((1R,5S)-3,8-diazabicyclo[3.2.1]octan-3-yl)-7-(8-ethynyl-7-fluoronaphthalen-1-yl)-8-fluoro-2-((2-methylenehexahydro-1H-pyrrolo[1,2-a]azepin-9a(5H)-yl)methoxy)pyrido[4,3-d]pyrimidine]
5.3	C#Cc1c(F)ccc2cc(O)cc(-c3ncc4c(N5C[C@H]6CC[C@@H](C5)N6)nc(OC[C@@H]5CC(=C)CN5C)nc4c3F)c12 [Example 46, 4-(4-((1R,5S)-3,8-diazabicyclo[3.2.1]octan-3-yl)-8-fluoro-2-(((S)-1-methyl-4-methylenepyrrolidin-2-yl)methoxy)pyrido[4,3-d]pyrimidin-7-yl)-5-ethynyl-6-fluoronaphthalen-2-ol]
52	C#Cc1c(F)ccc2cccc(-c3ncc4c(N5C[C@H]6CC[C@@H](C5)N6)nc(OCC56CC(=C)CN5CC(=C)C6)nc4c3F)c12 [Example 47, 4-((1R,5S)-3,8-diazabicyclo[3.2.1]octan-3-yl)-2-((2,6-dimethylenetetrahydro-1H-pyrrolizin-7a(5H)-yl)methoxy)-7-(8-ethynyl-7-fluoronaphthalen-1-yl)-8-fluoropyrido[4,3-d]pyrimidine]
